Results published in US9937262B2 (priority 2013, dated 2018).
Values after ≈ are worked out from the molar mass of the structure shown. Like-named read-outs stand apart in the source and are kept apart here.

Key:
[1] = human
Protocol: At 37±0.5° C., the hydrolysis rate of the prodrugs was measured in 80% human plasma. An appropriate aliquot (20-100 μL) of 1 mg/ml prodrug solution in methanol was transferred to 5.0 ml of preheated plasma. At appropriate time intervals, 300 μl sample aliquots were withdrawn and transferred to 600 μl acetonitrile and mixed thoroughly. After centrifugation at 13500 rpm for 5 min, the supernatant was analyzed by HPLC for parent drug and remaining prodrug.

[2] = Stability (cleavage to parent drug) of prodrug suspensions in PBS pH 7.4; assay type: physicochemical; conditions: for estimated pseudo first-order rate constant (khyd) for cleavage: PBS pH 7.4, 37° C., calculated from k0 and Sprodrug; for apparent pseudo-zero-order rate constant (k0): appearance of parent drug from suspension in PBS pH 7.4, 37° C.
Protocol: Suspensions of the prodrugs in 67 mM phosphate buffer pH 7.4 (PBS) were prepared by adding 10 mL PBS to approximately 5 mg prodrug. The suspensions were kept unstirred at 37° C. in an incubator hood. At appropriate time intervals over 23 days, about 500 μL samples were taken and after filtration (disposable syringe filters), the solutions were analyzed immediately by HPLC for parent drug and remaining prodrug. Quantitation of parent drug and prodrug was done from peak area measurements in relations to those of standards analysed by HPLC at the same conditions. […] Reversed phase chromatography was performed using a C18 Gemini® RP column (150×4.6 mm, 5 μm particles) (Phenomenex, Torrance, Calif., USA) equipped with a SecurityGuard precolumn (Phenomenex, Torrance, Calif., USA). The flow rate was set at 1 mL/min and the column effluent was monitored at 230 nm. The mobile phase consisted of 35% (v/v) acetonitrile and 65% (v/v) of 0.1% (v/v) phosphoric acid pH 3.2. The retention times varied in the range of 3 to 30 min.
From the observed relatively stable concentration of dissolved prodrugs measured in the suspensions after 8-9 day up to 23 days, the solubilities of the prodrugs (Sprodrug) were determined. In this time interval, the rate of appearance of parent drug was determined and an apparent pseudo-zero-order rate constant (k0) was obtained. By assuming that the dissolution rates were much faster than the conversion of the prodrugs to the parent drug, pseudo first-order rate constants (khyd) for cleavage of the prodrugs were calculated according to:

[3] = Precipitation on addition of acidic prodrug solution to 67 mM phosphate buffer pH 7.4; assay type: physicochemical; conditions: 1.0 mL concentrated aqueous solution pH 3.4 added to 1.0 mL 67 mM phosphate buffer pH 7.4
Protocol: The pH in the suspension was measured to 7.0.

[4] = Solubility of the prodrugs in PBS (67 mM phosphate buffer pH 7.4) at 37° C.; assay type: physicochemical; conditions: 67 mM phosphate buffer pH 7.4 (PBS), aqueous buffer, thermodynamic from solid, read-out: Sprodrug ± SD
Protocol: The determination of the solubility of a prodrug at different pH values of interest according to the present invention is carried by adding excess solid prodrug to a container containing a buffer solution with well-defined pH. The mixture is rotated at constant temperature until an equilibrium between solid prodrug and prodrug in solution has established (that is until the prodrug concentration in the supernatant remains constant). At each measurement the pH of the supernatant is controlled and eventually adjusted to the desired pH.
Suspensions of the prodrugs in 67 mM phosphate buffer pH 7.4 (PBS) were prepared by adding 10 mL PBS to approximately 5 mg prodrug. The suspensions were kept unstirred at 37° C. in an incubator hood. At appropriate time intervals over 23 days, about 500 μL samples were taken and after filtration (disposable syringe filters), the solutions were analyzed immediately by HPLC for parent drug and remaining prodrug. Quantitation of parent drug and prodrug was done from peak area measurements in relations to those of standards analysed by HPLC at the same conditions. […] The flow rate was set at 1 mL/min and the column effluent was monitored at 230 nm. […]
From the observed relatively stable concentration of dissolved prodrugs measured in the suspensions after 8-9 day up to 23 days, the solubilities of the prodrugs (Sprodrug) were determined. […]

[5] = Solubility of DPX-2-0006 at pH 3 in the presence of N,N-dimethyl acetamide (DMA); assay type: physicochemical; conditions: aqueous with cosolvent or surfactant or cyclodextrin, thermodynamic from solid, acidic suspension (pH 3), 37° C.
Protocol: A suspension of DPX-2-0006 was formed by adding 10 mg to 3 mL demineralized water, 0.05 mL 0.100 M HCl was added to obtain a pH of 3. After rotation of the suspension at 37° C. for 1 days, 0.5 mL sample was taken and after filtration (disposable syringe filters), the solution was diluted in methanol:water 1:1 and analyzed immediately by HPLC for prodrug. […] The HPLC method described in Example 29 was applied and the retention time of DPX-2-0006 was 14 min, respectively. N,N-dimethylacetamide (DMA) was added stepwise to the acidic suspension of DPX-2-0006 and the amount of DPX-2-0006 dissolved in the presence of various volumes of DMA was determined after 1-3 days rotation at 37° C. as described above.

Row | estimated pseudo first-order rate constant (khyd) for cleavage [2] | apparent pseudo-zero-order rate constant (k0) [2] | Structure (SMILES) | further results
1 |  |  | COc1ccc2cc(C(C)C(=O)OCCn3ccnc3)ccc2c1 (stereo not shown) | t1/2 in plasma (hydrolysis) [1]: 1.07 h
2 | 0.0029 day⁻¹ | 2.5e-07 M/day | O=C(Cc1ccccc1Nc1c(Cl)cccc1Cl)OCCn1ccnc1-c1ccccc1 [DPX-1-0007, 2-(2-phenyl-1H-imidazol-1-yl)ethyl 2-(2-((2,6-dichlorophenyl)amino)phenyl)acetate] | 
3 | 0.033 day⁻¹ | 1.7e-06 M/day | COc1ccc2cc(C(C)C(=O)OCCc3ccccn3)ccc2c1 (stereo not shown) [DPX-2-0004, 2-(pyridin-2-yl)ethyl 2-(6-methoxynaphthalen-2-yl)propanoate] | 
4 | 0.17 day⁻¹ | 2.4e-06 M/day | O=C(Cc1ccccc1Nc1c(Cl)cccc1Cl)OCCn1cnc2ccccc21 [DPX-1-0006, 2-(1H-benzo[d]imidazol-1-yl)ethyl 2-(2-((2,6-dichlorophenyl)amino)phenyl)acetate] | 
5 | 0.15 day⁻¹ | 1.1e-06 M/day | O=C(Cc1ccccc1Nc1c(Cl)cccc1Cl)OCCc1ccccn1 [DPX-1-0004, 2-(pyridin-2-yl)ethyl 2-(2-((2,6-dichlorophenyl)amino)phenyl)acetate] | 
6 | 0.065 day⁻¹ | 1e-06 M/day | COc1ccc2cc(C(C)C(=O)OCCn3ccnc3-c3ccccc3)ccc2c1 (stereo not shown) [DPX-2-0007, 2-(2-phenyl-1H-imidazol-1-yl)ethyl 2-(6-methoxynaphthalen-2-yl)propanoate] | precipitation on mixing with buffer pH 7.4 [3]: a precipitation was immediately observed
7 | 0.066 day⁻¹ | 1e-06 M/day | COc1ccc2cc(C(C)C(=O)OCCn3cnc4ccccc43)ccc2c1 (stereo not shown) [DPX-2-0006, 2-(1H-benzo[d]imidazol-1-yl)ethyl 2-(6-methoxynaphthalen-2-yl)propanoate] | solubility thermodynamic [4]: 5 ± 1 µg/mL (≈ 13.4 µM); solubility ([5]; acidified demineralized water with 5% (v/v) DMA, 5% (v/v) DMA, read-out: solubility in the presence of 5% (v/v) DMA): 250 µg/mL; solubility ([5]; acidified demineralized water with 15% (v/v) DMA, 15% (v/v) DMA, read-out: solubility in the presence of 15% (v/v) DMA): 350 µg/mL; solubility ([5]; acidified demineralized water with 30% (v/v) DMA, 30% (v/v) DMA, read-out: solubility in the presence of 30% (v/v) DMA): 570 µg/mL; solubility ([5]; acidified demineralized water with 50% (v/v) DMA, 50% (v/v) DMA, read-out: solubility in the presence of 50% (v/v) DMA): 2250 µg/mL
